For two compounds, Ki results are on record in US8357709B2, “2,4-disubstituted pyrrolidine orexin receptor antagonists” (Merck Sharp & Dohme Corp., priority 2008, dated 2013).

The target of one experiment is T1, orexin-2 receptor (OX2R) (Homo sapiens, UniProt O43614).
T1 construct: expressed in transfected cells; host or cells: CHO cells (membrane preparation)
T1 sequence (O43614 1-444): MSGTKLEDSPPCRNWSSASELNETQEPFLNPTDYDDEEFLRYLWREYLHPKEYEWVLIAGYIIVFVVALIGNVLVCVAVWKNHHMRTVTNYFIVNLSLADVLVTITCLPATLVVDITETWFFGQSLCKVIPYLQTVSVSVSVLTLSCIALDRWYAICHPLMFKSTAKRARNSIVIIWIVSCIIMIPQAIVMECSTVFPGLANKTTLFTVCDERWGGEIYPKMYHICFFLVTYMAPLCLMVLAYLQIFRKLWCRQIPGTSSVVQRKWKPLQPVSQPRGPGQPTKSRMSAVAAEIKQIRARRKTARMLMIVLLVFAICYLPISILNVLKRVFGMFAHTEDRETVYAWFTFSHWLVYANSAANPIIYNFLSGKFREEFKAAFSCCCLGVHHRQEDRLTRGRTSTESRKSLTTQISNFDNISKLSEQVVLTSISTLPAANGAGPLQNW
The experiment is described as follows: radioligand binding assay, membranes from CHO cells expressing OX2 receptor. The settings on record: CHO cell membranes. The method, then:
(§1) The utility of the compounds in accordance with the present invention as orexin receptor OX1R and/or OX2R antagonists may be readily determined without undue experimentation by methodology well known in the art, including the “FLIPR Ca^2+ Flux Assay” (Okumura et al., Biochem. Biophys. Res. Comm. 280:976-981, 2001). In a typical experiment the OX1 and OX2 receptor antagonistic activity of the compounds of the present invention was determined in accordance with the following experimental method. […] Within the Fluorescent Imaging Plate Reader (FLIPR, Molecular Devices), test compounds are added to the plate in a volume of 25 ul, incubated for 5 min and finally 25 ul of agonist is added. Fluorescence is measured for each well at 1 second intervals for 5 minutes and the height of each fluorescence peak is compared to the height of the fluorescence peak induced by 70 pM Ala-6,12 orexin-A with buffer in place of antagonist. […] Alternatively, compound potency can be assessed by a radioligand binding assay (described in Bergman et. al. Bioorg. Med. Chem. Lett. 2008, 18, 1425-1430) in which the inhibition constant (Ki) is determined in membranes prepared from CHO cells expressing either the orexin-1 (OX1) or orexin-2 (OX2) receptor. The intrinsic orexin receptor antagonist activity of a compound which may be used in the present invention may be determined by these assays.

Another experiment deals with T2, orexin-1 receptor (OX1R) (UniProt O43613).
T2 sequence (O43613 1-425): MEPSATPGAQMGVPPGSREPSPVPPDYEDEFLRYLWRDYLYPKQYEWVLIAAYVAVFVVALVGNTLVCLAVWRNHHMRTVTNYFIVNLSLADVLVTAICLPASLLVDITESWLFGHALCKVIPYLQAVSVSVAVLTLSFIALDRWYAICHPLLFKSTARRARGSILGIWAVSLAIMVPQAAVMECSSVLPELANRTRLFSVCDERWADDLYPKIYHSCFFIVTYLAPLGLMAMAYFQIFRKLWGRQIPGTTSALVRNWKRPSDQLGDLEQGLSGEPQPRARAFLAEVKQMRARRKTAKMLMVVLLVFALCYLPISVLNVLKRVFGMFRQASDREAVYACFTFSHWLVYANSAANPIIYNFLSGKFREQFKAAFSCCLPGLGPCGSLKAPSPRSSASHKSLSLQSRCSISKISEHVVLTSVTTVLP
Put plainly: radioligand binding assay, membranes from CHO cells expressing OX1 receptor. The settings on record: CHO cell membranes. The protocol: as §1

For `Cc1ccc(-n2nccn2)c(C(=O)N2CC(COc3ccc(F)cn3)CC2C)c1` (racemic) [A-7, 5-fluoro-2-({5-methyl-1-[5-methyl-2-(2H-1,2,3-triazol-2-yl)benzoyl]pyrrolidin-3-yl}methoxy)pyridine], the Ki was 10 nM at orexin-2 receptor (OX2R) and 230 nM on orexin-1 receptor (OX1R).
For `Cc1ccc(-n2nccn2)c(C(=O)N2CC(COc3ccc(F)cn3)CC2C)c1` (single isomer, unassigned) [A-8] the same measures were 5.1 nM and 37 nM.
